The supplement of paper PMC13380429

What was measured:
Settings in all cases: 72 h
Calu-3 [1] = test: relative viability EC50 (midpoint between 100% and the lowest measured viability); higher = less toxic
HepG2 [2] = test: as above
U2OS [3] = test: as above
Calu-3 [4] = test: cell viability relative to DMSO; higher = less toxic
HepG2 [5] = test: as above
Vero E6 [6] = test: as above
U2OS [7] = test: as above
Caco-2 [8] = test: as above
Calu-3 [9] = test: drug sensitivity score (DSS) for viability; higher = more toxic; extreme values may be limits of the assay
HepG2 [10] = test: as above
Vero E6 [11] = test: as above
U2OS [12] = test: as above
Caco-2 [13] = test: as above
Vero E6 [14] = test: relative viability EC50 (midpoint between 100% and the lowest measured viability); higher = less toxic

SMILES	relative viability EC50 (Calu-3 [1])	relative viability EC50 (HepG2 [2])	relative viability EC50 (U2OS [3])	cell viability (Calu-3 [4]; 1 nM)	cell viability (Calu-3 [4]; 10 nM)	cell viability (Calu-3 [4]; 100 nM)	cell viability (Calu-3 [4]; 1000 nM)	cell viability (Calu-3 [4]; 10000 nM)	cell viability (HepG2 [5]; 1 nM)	cell viability (HepG2 [5]; 10 nM)	cell viability (HepG2 [5]; 100 nM)	cell viability (HepG2 [5]; 1000 nM)	cell viability (HepG2 [5]; 10000 nM)	cell viability (Vero E6 [6]; 1 nM)	cell viability (Vero E6 [6]; 10 nM)	cell viability (Vero E6 [6]; 100 nM)	cell viability (Vero E6 [6]; 1000 nM)	cell viability (Vero E6 [6]; 10000 nM)	cell viability (U2OS [7]; 1 nM)	cell viability (U2OS [7]; 10 nM)	cell viability (U2OS [7]; 100 nM)	cell viability (U2OS [7]; 1000 nM)	cell viability (U2OS [7]; 10000 nM)	cell viability (Caco-2 [8]; 1 nM)	cell viability (Caco-2 [8]; 10 nM)	cell viability (Caco-2 [8]; 100 nM)	cell viability (Caco-2 [8]; 1000 nM)	cell viability (Caco-2 [8]; 10000 nM)	drug sensitivity score (Calu-3 [9])	drug sensitivity score (HepG2 [10])	drug sensitivity score (Vero E6 [11])	drug sensitivity score (U2OS [12])	drug sensitivity score (Caco-2 [13])	relative viability EC50 (Vero E6 [14])
Nc1nc(Nc2ccc(S(N)(=O)=O)cc2)nn1C(=O)c1c(F)cccc1F	4.32 µM	1.53 µM	3.41 µM	102%	97.1%	98.1%	127%	33.2%	103%	103%	92.8%	76.7%	8.9%	107%	104%	106%	99.1%	68.7%	102%	102%	100%	104%	2.1%	107%	100%	101%	106%	63.7%	2.6	8.6	1.5	5.1	1.4	
CC(C)(C)c1cc(C(=O)/C=C/c2ccc(C(=O)O)cc2)cc(C(C)(C)C)c1 [CH55]	> 10 µM	> 10 µM		92%	92.1%	76.9%	87.5%	77.8%	109%	113%	120%	105%	91.9%						98.2%	97.3%	91%	97.7%	64.4%	102%	87.3%	90.8%	93.3%	67%	4.3	0		2	2.4	
COc1cc(C=O)c([N+](=O)[O-])cc1OC [DMNB]	> 10 µM			102%	102%	103%	96.9%	107%						103%	100%	99.2%	96.9%	96.6%											0		0			> 10 µM
O=C(c1cccc(Cl)c1F)N1CCN(Cc2cccc(Nc3nccs3)n2)CC1 [MK-8745]	> 10 µM	0.676 µM		92.6%	88.5%	92%	85.1%	92.2%	105%	115%	101%	54.7%	37.7%	99.2%	101%	99%	90.2%	78%	102%	99.5%	98.5%	98.4%	69.1%	92.1%	94.2%	91.7%	86.5%	70.7%	0	8.7	1.6	1.6	2.8	> 10 µM
CC(C)NC(=O)N1CC[C@H](NC2=Nc3cc(F)ccc3N(CC(F)F)c3ccc(Cl)cc32)C1 [NVS-PAK1-1]	1.82 µM	> 10 µM		103%	112%	91.9%	90%	44.8%	108%	104%	93.6%	97.3%	93.4%	99.8%	101%	108%	92.3%	31.4%	104%	104%	98.7%	93.4%	51.3%	84.8%	120%	90.9%	110%	56.4%	4.6	0	5	3.7	1.7	2.24 µM
CC(=O)/N=c1/[nH]c(C)c(-c2ccc(Cl)c(S(=O)(=O)NCCO)c2)s1 [PIK-93]	1.49 µM	0.745 µM		103%	102%	91%	81.2%	41.9%	91.8%	92.7%	83.9%	71.6%	34.7%	106%	105%	99%	96.9%	78.6%	102%	106%	98.1%	90.8%	58.6%	94%	109%	92.5%	93.5%	58.9%	5.3	7.8	1.1	3.6	3.2	> 10 µM
O=C1C2CCN(CC2)C1(CO)CO [PRIMA1]	> 10 µM	> 10 µM		105%	99%	103%	87.6%	95.7%	94.5%	97.6%	81%	97.9%	104%	87%	92.6%	89.6%	94.2%	99.5%	98.8%	95.7%	101%	98.1%	70%	95.1%	91.6%	102%	96.3%	66.9%	0.6	0	0	1.6	2.1	> 10 µM
O=C(Nc1cccc(Cl)c1)Nc1ncc(CCNc2ncnc3ccsc23)s1 [SNS-314]		0.315 µM							92.8%	96.8%	76.3%	67.5%	41.6%	103%	103%	86.3%	89.9%	93.2%	98.5%	102%	88.2%	90.4%	74.8%	92.8%	99%	90.4%	85.8%	69%		9.2	1.8	1.9	2.9	> 10 µM
CNC(=O)c1ccccc1Nc1cc(Nc2ccc(N3CCOCC3)cc2OC)ncc1C(F)(F)F [VS-4718]		1.12 µM	1.5 µM	108%	97%	86.4%	68.3%	74.5%	98.6%	93.2%	99.1%	65%	19.3%	103%	101%	85.8%	69.2%	54.4%	98.5%	94.2%	95.2%	82.1%	35.1%	102%	91.8%	96.4%	82.5%	62.5%	6.6	9	7	6.2	3.6	
C=CC(=O)Nc1cc2c(Nc3ccc(F)c(Cl)c3)ncnc2cc1OCCCN1CCOCC1 [canertinib]	0.132 µM	> 10 µM	> 10 µM	100%	89.8%	70.2%	41.2%	30.1%	105%	97.6%	105%	95.5%	90.5%	98.5%	93.1%	86.3%	65.6%	51%	97.1%	98.5%	93.1%	96.1%	89.9%	91.7%	90.3%	81.6%	81.5%	69.5%	14.8	0	7.8	0	5.4	
CN(C)CCCC1(c2ccc(F)cc2)OCc2cc(C#N)ccc21 (centres undefined) [citalopram]																													0	0	0	0		
COc1ccc(-c2cc(=O)c3c(O)cc(O[C@@H]4O[C@H](CO[C@@H]5O[C@@H](C)[C@H](O)[C@@H](O)[C@H]5O)[C@@H](O)[C@H](O)[C@H]4O)cc3o2)cc1O [diosmin]																													0	0	0	0		
CCN1CCN(c2cc3c(cc2F)c(=O)c(C(=O)O)cn3C2CC2)CC1 [enrofloxacin]																													0	0	0	0		
COC(=O)Nc1nc2cc(C(=O)c3ccc(F)cc3)ccc2[nH]1 [flubendazole]		0.619 µM		94.2%	87.9%	98.8%	97.6%	72.3%	96.8%	95.7%	92.4%	63.4%	40.4%	94.9%	102%	92.4%	79%	41.8%	98.2%	107%	102%	95.4%	54.6%	93%	96.7%	101%	87.3%	54.6%	1.5	7.9	5.5	3.1	4.3	1.38 µM
Cc1cnc(C(=O)NCCc2ccc(S(=O)(=O)NC(=O)NC3CCCCC3)cc2)cn1 [glipizide]																													0	0	0	0		
CC(=O)c1ccc2c(c1)C(=O)C1(CC1)O2 [spizofurone]																													0	0	0	0		
COc1ccc(-n2nc(CCC(=O)N(C)O)cc2-c2ccc(Cl)cc2)cc1 [tepoxalin]	> 10 µM			97.5%	110%	102%	106%	110%	107%	106%	96.4%	96.6%	73.8%	98.2%	99.9%	99.5%	99.9%	64.7%	97.1%	95.7%	96.7%	94.6%	61.8%	103%	112%	116%	99.4%	59.8%	0	1.6	1.7	2.8	2.1	
